Measurements from PubChem BioAssay AID256 (DTP/NCI, 2004).
“And” between values parts separate entries of the source, which are not always exact repeats. Identical values can stand only once. Toxic doses and inconclusive results are not listed.

Tested on: CD2F1 mice, L1210 leukemia ip, survival T/C
Test: NCI In Vivo Anticancer Drug Screen. Data for tumor model L1210 Leukemia (intraperitoneal) in CD2F1 (CDF1) mice
Conditions: higher = longer survival
In short: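 Transplantable tumor in mice; compound-treated vs vehicle-treated groups. Read-out = treated/control ratio of the measured endpoint.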

[1] = endpoint: mean survival time, dose: 75.0 mg/kg/injection, schedule: Q01DX001 (ip), vehicle: saline
[2] = endpoint: mean survival time, dose: 150.0 mg/kg/injection, schedule: Q01DX001 (ip), vehicle: saline
[3] = endpoint: mean survival time, dose: 100.0 mg/kg/injection, schedule: Q04DX002 (ip), vehicle: saline with Tween-80
[4] = endpoint: mean survival time, dose: 100.0 mg/kg/injection, schedule: Q04DX003 (ip), vehicle: saline with Tween-80
[5] = endpoint: mean survival time, dose: 200.0 mg/kg/injection, schedule: Q04DX003 (ip), vehicle: saline with Tween-80
[6] = endpoint: mean survival time, dose: 400.0 mg/kg/injection, schedule: Q04DX003 (ip), vehicle: saline with Tween-80
[7] = endpoint: mean survival time, dose: 100.0 mg/kg/injection, schedule: Q01DX001 (ip), vehicle: saline with Tween-80
[8] = endpoint: mean survival time, dose: 200.0 mg/kg/injection, schedule: Q01DX001 (ip), vehicle: saline with Tween-80
[9] = endpoint: mean survival time, dose: 400.0 mg/kg/injection, schedule: Q01DX001 (ip), vehicle: saline with Tween-80

## CC(=O)n1cc(F)c(=O)[nH]c1=O
endpoint: mean survival time, dose: 16.5 mg/kg/injection, schedule: Q01DX009 (ip), vehicle: saline
  T/C: 172 % of control
endpoint: mean survival time, dose: 25.0 mg/kg/injection, schedule: Q01DX009 (ip), vehicle: saline with Tween-80
  T/C: 169 % of control
endpoint: mean survival time, dose: 50.0 mg/kg/injection, schedule: Q01DX009 (ip), vehicle: saline with Tween-80
  T/C: 105 % of control

## CCOC(=O)/C(C#N)=N\O
endpoint: mean survival time, dose: 100.0 mg/kg/injection, schedule: Q01DX001 (ip), vehicle: saline
  T/C: 102 % of control

## O=C(OCC(F)(F)F)C(Cl)(Cl)Cl
[1]
  T/C: 97 % of control
[2]
  T/C: 107 % of control
endpoint: mean survival time, dose: 300.0 mg/kg/injection, schedule: Q01DX001 (ip), vehicle: saline
  T/C: 107 % of control

## O=C(c1ccccc1)C(Sc1ccccc1)Sc1ccccc1
endpoint: median survival time, dose: 50.0 mg/kg/injection, schedule: Q04DX002 (ip), vehicle: saline with Tween-80
  T/C: 100 % of control
endpoint: median survival time, dose: 100.0 mg/kg/injection, schedule: Q04DX002 (ip), vehicle: saline with Tween-80
  T/C: 100 % of control
endpoint: median survival time, dose: 200.0 mg/kg/injection, schedule: Q04DX002 (ip), vehicle: saline with Tween-80
  T/C: 100 % of control
endpoint: median survival time, dose: 400.0 mg/kg/injection, schedule: Q04DX002 (ip), vehicle: saline with Tween-80
  T/C: 110 % of control

## O=C(CCc1ccc(C(=O)C[n+]2ccccc2)cc1)C[n+]1ccccc1
endpoint: mean survival time, dose: 0.5 mg/kg/injection, schedule: Q04DX003 (ip), vehicle: saline
  T/C: 104 % of control
endpoint: mean survival time, dose: 1.0 mg/kg/injection, schedule: Q04DX003 (ip), vehicle: saline
  T/C: 101 % of control
endpoint: mean survival time, dose: 2.0 mg/kg/injection, schedule: Q04DX003 (ip), vehicle: saline
  T/C: 95 % of control

## CN1C(=O)[N+](C)(C)N=C1[O-]
endpoint: mean survival time, dose: 100.0 mg/kg/injection, schedule: Q04DX003 (ip), vehicle: saline
  T/C: 94 % of control
endpoint: mean survival time, dose: 200.0 mg/kg/injection, schedule: Q04DX003 (ip), vehicle: saline
  T/C: 97 % of control
endpoint: mean survival time, dose: 400.0 mg/kg/injection, schedule: Q04DX003 (ip), vehicle: saline
  T/C: 95 % of control

## Cc1c(-c2ccc(-c3ccccc3F)cc2)nc2ccc(F)cc2c1C(=O)O
endpoint: median survival time, dose: 5.2 mg/kg/injection, schedule: Q01DX009 (ip), vehicle: water
  T/C: 153 % of control
endpoint: median survival time, dose: 6.25 mg/kg/injection, schedule: Q01DX009 (ip), vehicle: water
  T/C: 165 % of control
endpoint: median survival time, dose: 8.6 mg/kg/injection, schedule: Q01DX009 (ip), vehicle: water
  T/C: 166 % of control
endpoint: median survival time, dose: 12.5 mg/kg/injection, schedule: Q01DX009 (ip), vehicle: water
  T/C: 168 % of control
endpoint: median survival time, dose: 14.4 mg/kg/injection, schedule: Q01DX009 (ip), vehicle: water
  T/C: 171 % of control
endpoint: median survival time, dose: 24.0 mg/kg/injection, schedule: Q01DX009 (ip), vehicle: water
  T/C: 172 % of control
endpoint: median survival time, dose: 25.0 mg/kg/injection, schedule: Q01DX009 (ip), vehicle: water
  T/C: 179 % of control
endpoint: median survival time, dose: 40.0 mg/kg/injection, schedule: Q01DX009 (ip), vehicle: water
  T/C: 175 % of control
endpoint: median survival time, dose: 50.0 mg/kg/injection, schedule: Q01DX009 (ip), vehicle: water
  T/C: 108 % of control
endpoint: median survival time, dose: 66.7 mg/kg/injection, schedule: Q01DX009 (ip), vehicle: water
  T/C: 116 % of control
endpoint: median survival time, dose: 100.0 mg/kg/injection, schedule: Q01DX009 (ip), vehicle: water
  T/C: 93 % of control

## O=S(=O)([O-])O.O=S(O)S(=O)O.[Co+3].[NH2-].[NH2-].[NH2-].[NH2-].[NH2-]
[3]
  T/C: 97 % of control

## O=P1(N(CCCl)CCCl)OCCC(c2ccccc2)N1Cl (stereo not given)
endpoint: mean survival time, dose: 43.75 mg/kg/injection, schedule: Q01DX001 (ip), vehicle: distilled water + Tween-80
  T/C: 106 % of control
endpoint: mean survival time, dose: 87.5 mg/kg/injection, schedule: Q01DX001 (ip), vehicle: distilled water + Tween-80
  T/C: 103 % of control
endpoint: mean survival time, dose: 175.0 mg/kg/injection, schedule: Q01DX001 (ip), vehicle: distilled water + Tween-80
  T/C: 106 % of control
endpoint: mean survival time, dose: 350.0 mg/kg/injection, schedule: Q01DX001 (ip), vehicle: distilled water + Tween-80
  T/C: 110 % of control

## Cc1[nH]c(=O)[nH]c(=O)c1-n1nnc2ccccc2c1=O
[4]
  T/C: 97 % of control
[5]
  T/C: 97 % of control
[6]
  T/C: 95 % of control

## CC(=O)Nc1nc(Br)c2ccccc2c1-c1ccc(N(CCCl)CCCl)cc1
endpoint: mean survival time, dose: 3.13 mg/kg/injection, schedule: Q04DX003 (ip), vehicle: DMSO
  T/C: 104 % of control
endpoint: mean survival time, dose: 6.25 mg/kg/injection, schedule: Q04DX003 (ip), vehicle: DMSO
  T/C: 102 % of control
endpoint: mean survival time, dose: 12.5 mg/kg/injection, schedule: Q04DX003 (ip), vehicle: DMSO
  T/C: 101 % of control
endpoint: mean survival time, dose: 25.0 mg/kg/injection, schedule: Q04DX003 (ip), vehicle: DMSO
  T/C: 98 % of control

## O=C(NCCNC(c1ccccc1)C(NCCNC(=O)c1ccccc1)c1ccccc1)c1ccccc1 (stereo not given)
[7]
  T/C: 92 % of control
[8]
  T/C: 96 % of control
[9]
  T/C: 92 % of control

## OC1CCC2=C(C1)C1CCC2C1 (stereo not given)
endpoint: mean survival time, dose: 12.5 mg/kg/injection, schedule: Q01DX009 (ip), vehicle: saline
  T/C: 98 % of control
endpoint: mean survival time, dose: 25.0 mg/kg/injection, schedule: Q01DX009 (ip), vehicle: saline
  T/C: 103 % of control
endpoint: mean survival time, dose: 50.0 mg/kg/injection, schedule: Q01DX009 (ip), vehicle: saline
  T/C: 97 % of control

## C1OC1CO[C@@H]1CO[C@H]2[C@@H]1OC[C@H]2OCC1CO1 (stereo not given in full)
endpoint: mean survival time, dose: 12.5 mg/kg/injection, schedule: Q01DX009 (ip), vehicle: suspension in saline
  T/C: 100 % of control

## CCCCCCCCCCC(=O)CCCCCC
endpoint: mean survival time, dose: 100.0 mg/kg/injection, schedule: Q04DX003 (ip), vehicle: other
  T/C: 89 % of control
endpoint: mean survival time, dose: 200.0 mg/kg/injection, schedule: Q04DX003 (ip), vehicle: other
  T/C: 92 % of control
endpoint: mean survival time, dose: 400.0 mg/kg/injection, schedule: Q04DX003 (ip), vehicle: other
  T/C: 118 % of control

## O=C(Nc1ccc(Nc2ccccc2)cc1)Nc1cc([N+](=O)[O-])ccc1Cl
endpoint: mean survival time, dose: 50.0 mg/kg/injection, schedule: Q01DX001 (ip), vehicle: saline with Tween-80
  T/C: 92 % of control
[7]
  T/C: 86 % of control and 90 % of control
endpoint: mean survival time, dose: 100.0 mg/kg/injection, schedule: Q01DX009 (ip), vehicle: saline with Tween-80
  T/C: 91 % of control and 98 % of control
[3]
  T/C: 93 % of control and 100 % of control
[4]
  T/C: 87 % of control
[8]
  T/C: 90 % of control
endpoint: mean survival time, dose: 200.0 mg/kg/injection, schedule: Q01DX009 (ip), vehicle: saline with Tween-80
  T/C: 100 % of control and 109 % of control
endpoint: mean survival time, dose: 200.0 mg/kg/injection, schedule: Q04DX002 (ip), vehicle: saline with Tween-80
  T/C: 91 % of control and 92 % of control
[5]
  T/C: 95 % of control
[9]
  T/C: 91 % of control
endpoint: mean survival time, dose: 400.0 mg/kg/injection, schedule: Q01DX009 (ip), vehicle: saline with Tween-80
  T/C: 103 % of control and 111 % of control
endpoint: mean survival time, dose: 400.0 mg/kg/injection, schedule: Q04DX002 (ip), vehicle: saline with Tween-80
  T/C: 92 % of control and 98 % of control
[6]
  T/C: 98 % of control

## CCC(C)(O)c1cnc(CC(C)C)c(=O)n1O (stereo not given)
[1]
  T/C: 98 % of control
[2]
  T/C: 102 % of control
